Organism: Homo sapiens
Assay: Ratio of acarbose IC50 to compound IC50 for alpha-glucosidase (unknown origin)

SMILES | Ratio IC50
CC(CC(=O)C[C@@H](C)[C@H]1CC(=O)[C@@]2(C)C3=C([C@@H](O)C[C@]12C)[C@@]1(C)CCC(=O)C(C)(C)[C@@H]1C[C@@H]3O)C(=O)O (stereo partly drawn) [GANODERIC ACID DF] | 2.5
C[C@H](CCC=C(CO)CO)[C@H]1CC[C@@]2(C)C3=CC[C@H]4C(C)(C)C(=O)CC[C@]4(C)C3=CC[C@]12C [GANODERIOL F] | 3
C/C(=C\CC[C@@H](C)[C@H]1CC[C@@]2(C)C3=CC[C@H]4C(C)(C)[C@@H](O)CC[C@]4(C)C3=CC[C@]12C)CO [GANODEROL B] | 5

Target: not listed separately
Assay: Inhibition of alpha-glucosidase (unknown origin) using sucrose as substrate assessed as formation of glucose after 30 mins by glucose oxidase method
Set-up: species or system Homo sapiens

SMILES | IC50 [µM]
COC(=O)C(C)CC(=O)C[C@@H](C)[C@H]1CC(=O)[C@@]2(C)C3=C([C@@H](O)C[C@]12C)[C@@]1(C)CCC(=O)C(C)(C)[C@@H]1C[C@@H]3O (stereo partly drawn) | > 600
C[C@H]1O[C@H](O[C@H]2[C@H](O)[C@@H](O)[C@@H](O[C@H]3[C@H](O)[C@@H](O)C(O)O[C@@H]3CO)O[C@@H]2CO)[C@H](O)[C@@H](O)[C@@H]1N[C@H]1C=C(CO)[C@@H](O)[C@H](O)[C@H]1O (stereo partly drawn) [ACARBOSE] | 522
C/C(=C\C(=O)CC(C)C(=O)O)[C@H]1C[C@H](O)[C@@]2(C)C3=C(C(=O)C[C@]12C)[C@@]1(C)CCC(=O)C(C)(C)[C@@H]1C[C@@H]3O (stereo partly drawn) [GANODERENIC ACID A] | 445
C[C@H](CC(=O)C[C@@H](C)[C@H]1C[C@H](O)[C@@]2(C)C3=C(C(=O)C[C@]12C)[C@@]1(C)CCC(=O)C(C)(C)[C@@H]1C[C@@H]3O)C(=O)O [GANODERIC ACID A] | 528
CC(CC(=O)C[C@@H](C)[C@H]1CC(=O)[C@@]2(C)C3=C(C(=O)C[C@]12C)[C@@]1(C)CC[C@H](O)C(C)(C)[C@@H]1C[C@@H]3O)C(=O)O (stereo partly drawn) [GANODERIC ACID B] | 464
C[C@H](CC(=O)C[C@@H](C)[C@H]1CC(=O)[C@@]2(C)C3=C(C(=O)C[C@]12C)[C@@]1(C)CCC(=O)C(C)(C)[C@@H]1C[C@@H]3O)C(=O)O [GANODERIC ACID C1] | > 600
C[C@H](CC(=O)C[C@@H](C)[C@H]1C[C@H](O)[C@@]2(C)C3=C(C(=O)C[C@]12C)[C@@]1(C)CC[C@H](O)C(C)(C)[C@@H]1C[C@@H]3O)C(=O)O [GANODERIC ACID C2] | > 600
CC(CC(=O)C[C@@H](C)[C@H]1CC(=O)[C@@]2(C)C3=C(C(=O)[C@@H](O)[C@]12C)[C@@]1(C)CC[C@H](O)C(C)(C)[C@@H]1CC3=O)C(=O)O (stereo partly drawn) [GANODERIC ACID C6] | > 600
CC(CC(=O)C[C@@H](C)[C@H]1CC(=O)[C@@]2(C)C3=C([C@@H](O)C[C@]12C)[C@@]1(C)CCC(=O)C(C)(C)[C@@H]1C[C@@H]3O)C(=O)O (stereo partly drawn) [GANODERIC ACID DF] | 219
CC(CC(=O)C[C@@H](C)[C@H]1CC(=O)[C@@]2(C)C3=C(C(=O)C[C@]12C)[C@@]1(C)CCC(=O)C(C)(C)[C@@H]1C[C@@H]3O)C(=O)O (stereo partly drawn) [GANODERIC ACID D] | > 600
CC(CC(=O)C[C@@H](C)[C@H]1CC(=O)[C@@]2(C)C3=C(C(=O)[C@@H](O)[C@]12C)[C@@]1(C)CC[C@H](O)C(C)(C)[C@@H]1C[C@@H]3O)C(=O)O (stereo partly drawn) [GANODERIC ACID G] | > 600
CC(=O)O[C@@H]1C(=O)C2=C(C(=O)C[C@H]3C(C)(C)[C@@H](O)CC[C@]23C)[C@]2(C)C(=O)C[C@H]([C@H](C)CC(=O)CC(C)C(=O)O)[C@@]12C (stereo partly drawn) [GANODERIC ACID H] | > 600
CC(CC(=O)C[C@@H](C)[C@H]1C[C@H](O)[C@@]2(C)C3=C(C(=O)C[C@]12C)[C@@]1(C)CCC(=O)C(C)(C)[C@@H]1CC3=O)C(=O)O (stereo partly drawn) [GANODERIC ACID J] | > 600
CC(=O)O[C@@H]1C(=O)C2=C([C@@H](O)C[C@H]3C(C)(C)[C@@H](O)CC[C@]23C)[C@]2(C)C(=O)C[C@H]([C@H](C)CC(=O)CC(C)C(=O)O)[C@@]12C (stereo partly drawn) [GANODERIC ACID K] | > 600
C[C@H](CCC=C(CO)CO)[C@H]1CC[C@@]2(C)C3=CC[C@H]4C(C)(C)C(=O)CC[C@]4(C)C3=CC[C@]12C [GANODERIOL F] | 208
C[C@H](CC[C@H](O)[C@](C)(O)CO)[C@H]1CC[C@@]2(C)C3=CC[C@H]4C(C)(C)C(=O)CC[C@]4(C)C3=CC[C@]12C [GANODERMANONTRIOL] | 540
C/C(=C\CC[C@@H](C)[C@H]1CC[C@@]2(C)C3=CC[C@H]4C(C)(C)[C@@H](O)CC[C@]4(C)C3=CC[C@]12C)CO [GANODEROL B] | 110
CC(CC(=O)C[C@@H](C)[C@H]1C[C@H](O)[C@@]2(C)C3=C(C(=O)C[C@]12C)[C@@]1(C)CC[C@H](O)C(C)(C)[C@@H]1CC3)C(=O)O (stereo partly drawn) [GANOLUCIDIC ACID B] | > 600
COC(=O)C(C)CC(=O)C[C@@H](C)[C@H]1C[C@H](O)[C@@]2(C)C3=C(C(=O)C[C@]12C)[C@@]1(C)CCC(=O)C(C)(C)[C@@H]1C[C@@H]3O (stereo partly drawn) [METHYL GANODERATE A] | > 600
COC(=O)C(C)CC(=O)/C=C(\C)[C@H]1C[C@H](O)[C@@]2(C)C3=C(C(=O)C[C@]12C)[C@@]1(C)CCC(=O)C(C)(C)[C@@H]1C[C@@H]3O (stereo partly drawn) [METHYL GANODERENATE A] | > 600

Source: ChEMBL document CHEMBL2440051, “Structure-activity relationships of lanostane-type triterpenoids from Ganoderma lingzhi as α-glucosidase inhibitors” (Bioorg Med Chem Lett, 2013)
